Values quoted from earlier work as cited in patent US8945534B2, “Controlled activation of the reuterin-production machinery of Lactobacillus” (priority 2008, dated 2015).

Test system: Escherichia, Salmonella, Shigella, Proteus, Pseudomonas, Clostridium, Staphylococcus, Streptococcus, and Helicobacter pylori; several fungi and other …
Details: species representing all bacterial genera tested thus far; U.S. Pat. Nos. 5,439,678 etc.

## O=CCCO [Reuterin, 3-hydroxypropionaldehyde]
  inhibition of growth of microorganisms: capable of inhibiting growth
